Like-named read-outs stand apart in the source and are kept apart here.
Target: T1, Fervidobacterium sp. Ven 5, DSM 6204 pullulanase, purified native enzyme (Fervidobacterium pennivorans, UniProt Q9XDB5)
T1 construct: Ven 5; single SDS-PAGE band of 78 kDa; not the E. coli clone PL2125
T1 sequence (Q9XDB5 29-849): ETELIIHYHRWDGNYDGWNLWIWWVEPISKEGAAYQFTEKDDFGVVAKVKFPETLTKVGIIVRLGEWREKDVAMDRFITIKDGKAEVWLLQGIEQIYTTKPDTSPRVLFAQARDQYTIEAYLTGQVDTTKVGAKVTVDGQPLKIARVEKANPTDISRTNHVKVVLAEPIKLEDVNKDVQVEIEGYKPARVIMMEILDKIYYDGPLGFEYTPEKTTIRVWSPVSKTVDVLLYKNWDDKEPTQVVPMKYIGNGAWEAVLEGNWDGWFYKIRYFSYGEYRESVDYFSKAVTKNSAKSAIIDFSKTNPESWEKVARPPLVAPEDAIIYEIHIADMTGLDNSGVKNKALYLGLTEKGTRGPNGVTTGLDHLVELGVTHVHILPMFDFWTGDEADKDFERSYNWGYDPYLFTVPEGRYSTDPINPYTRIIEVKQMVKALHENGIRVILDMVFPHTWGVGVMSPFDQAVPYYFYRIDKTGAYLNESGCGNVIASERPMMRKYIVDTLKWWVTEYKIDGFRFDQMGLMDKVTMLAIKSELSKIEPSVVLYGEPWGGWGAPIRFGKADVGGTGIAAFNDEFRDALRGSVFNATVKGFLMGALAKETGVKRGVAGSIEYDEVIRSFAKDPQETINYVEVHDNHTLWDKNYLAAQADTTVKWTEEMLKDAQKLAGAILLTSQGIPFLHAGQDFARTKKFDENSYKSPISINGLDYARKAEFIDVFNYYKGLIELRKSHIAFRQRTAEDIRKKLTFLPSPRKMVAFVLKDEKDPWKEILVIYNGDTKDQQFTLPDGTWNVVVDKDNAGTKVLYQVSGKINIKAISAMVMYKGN
Assay: Influence of cyclodextrins and EDTA on pullulytic activity (reducing sugars liberated from pullulan)
Assay type: biochemical
Conditions: for Influence on the pullulytic activity (in words): up to 5 mM
Description: Pullulanase activity was measured by determining the amount of reducing sugars liberated during incubation with pullulan at 85° C. and pH 6.0. The activity of 1 U of pullulanase was defined as that amount of enzyme which liberates 1 μmol of reducing sugar per minute using maltose as a standard. The enzymatic reactions were conducted in 50 mM sodium-phosphate buffer, pH 6.0, the concentration of the substrate was 0.5% (w/v).
The reaction mixture was prepared by adding 50 μl enzyme solution to 200 μl substrate solution. The mixture was incubated at 85° C. for 5 minutes, cooled and diluted with 2.5 ml water. After incubation 250 μl dinitrosalicylic acid reagent (i.e. dinitrosalicylic acid 1 g, 2 N NaOh 20 ml, K-Na-tartrate×4 H2 O 30 g, and distilled water 100 ml) were added. The optical density was measured at 546 nm against a mixture which was not incubated.
6) Influence of metal ions,
The concentration of inhibitors was:
Metal ions and cyclodextrins
The purified pullulanase obtained according to Ex. 2 was subjected to characterization using the method for analyzing pullulanase activity described in Ex. 1.
To investigate the influence of metal ions, cyclodextrins and various glucose polymers on the activity of the pullulanase the purified enzyme was incubated with a 0.5% pullulan solution (pH 6.0) in the presence of up to 5 mM of metal ions and cyclodextrins. Amylose, starch, glycogen, pullulan and branched oligosaccharides were added in concentrations of up to 0.05%.

[1] = pH 6, read-out: Activity (%) of pullulanase in the presence of inhibitor

Compound	inhibition at 5000 µM [1] [%]	Influence on the pullulytic activity (in words) (0.5% pullulan solution, pH 6.0)	inhibition at 5000 µM (5 mM inhibitor, 0.5% pullulan solution, pH 6.0, 1.0 U/ml pullulanase, no inhibitor = 100, read-out: Activity (%) of pullulanase in the presence of inhibitor) [%]
O=C(O)CN(CCN(CC(=O)O)CC(=O)O)CC(=O)O [EDTA]	100	did not influence the pullulytic activity	
OCC1OC2OC3C(CO)OC(OC4C(CO)OC(OC5C(CO)OC(OC6C(CO)OC(OC7C(CO)OC(OC1C(O)C2O)C(O)C7O)C(O)C6O)C(O)C5O)C(O)C4O)C(O)C3O (stereo not drawn) [α-Cyclodextrin]	57	decreased the activity of the enzyme slightly	
OCC1OC2OC3C(CO)OC(OC4C(CO)OC(OC5C(CO)OC(OC6C(CO)OC(OC7C(CO)OC(OC8C(CO)OC(OC1C(O)C2O)C(O)C8O)C(O)C7O)C(O)C6O)C(O)C5O)C(O)C4O)C(O)C3O (stereo not drawn) [β-Cyclodextrin]		inhibited completely	4

Source: patent US5486469A, “Thermostable Fervidobacterium pullulanases” (Novo Nordisk A/S, priority 1991, dated 1996)
